Here are results for 2 compounds from PMC11022890 (Drug Metabolism and Disposition, 2021).

For one series, the target named is T1, UGT1A6 (Homo sapiens, UniProt P19224).
T1 sequence (P19224 27-532): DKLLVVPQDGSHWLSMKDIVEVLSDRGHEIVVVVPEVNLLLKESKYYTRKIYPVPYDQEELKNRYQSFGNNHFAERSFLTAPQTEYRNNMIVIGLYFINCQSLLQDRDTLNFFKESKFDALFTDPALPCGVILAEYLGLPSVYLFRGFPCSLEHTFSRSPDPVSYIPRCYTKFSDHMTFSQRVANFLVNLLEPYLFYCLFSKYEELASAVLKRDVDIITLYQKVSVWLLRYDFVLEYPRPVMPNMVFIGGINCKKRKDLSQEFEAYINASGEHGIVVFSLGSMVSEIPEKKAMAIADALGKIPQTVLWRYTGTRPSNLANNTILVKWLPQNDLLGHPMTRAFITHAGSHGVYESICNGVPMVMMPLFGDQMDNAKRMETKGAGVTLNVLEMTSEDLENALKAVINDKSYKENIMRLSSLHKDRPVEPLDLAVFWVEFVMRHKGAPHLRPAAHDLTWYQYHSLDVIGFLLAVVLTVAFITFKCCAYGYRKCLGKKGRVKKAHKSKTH
In words: Inhibition of serotonin glucuronidation in rUGT1A6 microsomes. Format: in vitro ADME. Particulars: for inhibition vs control without cannabinoid: serotonin.

For series [1], the target named is T2, UGT1A9 (Homo sapiens, UniProt O60656).
T2 sequence (O60656 26-530): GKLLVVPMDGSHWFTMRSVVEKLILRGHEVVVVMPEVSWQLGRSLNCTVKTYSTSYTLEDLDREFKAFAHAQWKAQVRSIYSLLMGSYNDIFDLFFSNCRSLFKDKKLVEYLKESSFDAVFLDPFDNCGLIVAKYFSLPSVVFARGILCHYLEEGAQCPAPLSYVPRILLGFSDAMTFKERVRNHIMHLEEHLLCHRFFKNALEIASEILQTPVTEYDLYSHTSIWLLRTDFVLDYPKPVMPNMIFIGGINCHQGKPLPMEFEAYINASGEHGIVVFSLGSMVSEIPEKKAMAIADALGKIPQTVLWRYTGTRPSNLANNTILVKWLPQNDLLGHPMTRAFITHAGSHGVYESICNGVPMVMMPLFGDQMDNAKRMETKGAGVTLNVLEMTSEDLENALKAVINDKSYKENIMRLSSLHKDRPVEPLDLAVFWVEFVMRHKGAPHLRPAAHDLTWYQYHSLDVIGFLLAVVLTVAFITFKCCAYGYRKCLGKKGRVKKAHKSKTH
In words: Inhibition of propofol glucuronidation in rUGT1A9 microsomes. Format: in vitro ADME.

Another series has as its target T3, UGT2B7 (Homo sapiens, UniProt P16662).
T3 sequence (P16662 24-529): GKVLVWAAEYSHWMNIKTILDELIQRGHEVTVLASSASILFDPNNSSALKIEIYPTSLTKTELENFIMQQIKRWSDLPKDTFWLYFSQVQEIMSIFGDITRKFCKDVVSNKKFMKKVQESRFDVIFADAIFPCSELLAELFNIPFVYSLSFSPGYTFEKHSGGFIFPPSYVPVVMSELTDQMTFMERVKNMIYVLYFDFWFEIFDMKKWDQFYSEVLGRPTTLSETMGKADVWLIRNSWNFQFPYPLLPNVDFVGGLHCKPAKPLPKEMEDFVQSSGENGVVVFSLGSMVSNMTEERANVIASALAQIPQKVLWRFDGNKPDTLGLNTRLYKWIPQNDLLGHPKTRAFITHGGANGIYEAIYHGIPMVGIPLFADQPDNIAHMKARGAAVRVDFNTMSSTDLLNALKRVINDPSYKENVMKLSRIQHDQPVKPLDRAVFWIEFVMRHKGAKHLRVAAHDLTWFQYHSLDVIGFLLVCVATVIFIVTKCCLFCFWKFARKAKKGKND
Format: in vitro ADME. Conditions: rUGT2B7 microsomes.

The target of series [2] is T4, UGT1A9 in human kidney microsomes (Homo sapiens, UniProt O60656).
T4 sequence (O60656 26-530): T2 sequence (O60656 26-530)
Description: Inhibition of acetaminophen glucuronidation. Conditions: HKM.

Series [3] has as its target T2, UGT1A9. In words: Inhibition of acetaminophen glucuronidation in rUGT1A9 microsomes. Format: in vitro ADME. Conditions: IC50, probe substrate acetaminophen.
In series [4] the target is T4, UGT1A9 in human kidney microsomes. Description: Inhibition of furosemide glucuronidation. Conditions: HKM.
In series [5] the target is T2, UGT1A9. In words: in vitro. Conditions: both, HLM.
Another series concerns the target T5, UGT2B15 (Homo sapiens, UniProt P54855).
T5 sequence (P54855 24-530): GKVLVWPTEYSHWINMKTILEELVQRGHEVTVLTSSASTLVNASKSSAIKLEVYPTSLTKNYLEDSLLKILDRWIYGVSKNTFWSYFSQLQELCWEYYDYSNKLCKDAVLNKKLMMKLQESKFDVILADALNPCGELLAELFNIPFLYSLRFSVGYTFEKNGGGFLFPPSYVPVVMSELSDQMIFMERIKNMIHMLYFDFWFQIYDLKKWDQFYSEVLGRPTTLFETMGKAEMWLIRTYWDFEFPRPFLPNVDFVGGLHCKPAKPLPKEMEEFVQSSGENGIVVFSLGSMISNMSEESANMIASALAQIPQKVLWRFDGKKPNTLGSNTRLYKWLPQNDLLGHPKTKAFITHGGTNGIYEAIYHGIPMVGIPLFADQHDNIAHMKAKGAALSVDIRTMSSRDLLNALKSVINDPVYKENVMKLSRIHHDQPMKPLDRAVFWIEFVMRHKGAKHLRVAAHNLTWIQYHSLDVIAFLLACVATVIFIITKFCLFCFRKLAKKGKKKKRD
In words: Screening: inhibition of oxazepam glucuronidation in rUGT2B15 microsomes. It is filed as in vitro ADME. Conditions: 10 or 100 µM.

[6] abbreviates: IC50,u (binding-corrected IC50), probe substrate propofol.
[7] abbreviates: IC50, probe substrate acetaminophen.
Where [8] appears, read: IC50,u (binding-corrected IC50), probe substrate acetaminophen.
The mark [9] stands for this setting: IC50, probe substrate furosemide.
Setting [10] is: IC50,u (binding-corrected IC50), probe substrate furosemide.

`C=C(C)[C@@H]1CCC(C)=C[C@H]1c1c(O)cc(CCCCC)cc1O` [CBD, cannabidiol]: the “inhibition vs control without cannabinoid” value on UGT1A6 (10 µM, screening) stood at 25%; against UGT1A6 (100 µM, screening in duplicate) it was 54%; at UGT1A9 [1] (10 µM, propofol, screening), 91%; at UGT2B7 (10 µM, zidovudine, screening), 58%. The IC50 at UGT1A6 (IC50,u (binding-corrected IC50), probe substrate serotonin) stood at 0.4 ± 0.1 µM; at UGT1A9 [1] (IC50, probe substrate propofol) it was 3.2 ± 0.52 µM; on UGT1A9 [1] (setting [6]), 0.12 ± 0.02 µM; in series [2] (setting [7]) it was 3.8 ± 0.82 µM; in series [2] (setting [8]), 0.24 ± 0.05 µM; at UGT1A9 [3], 1.9 ± 0.29 µM. Further, the IC50 was 3.6 ± 0.8 µM in series [4] (setting [9]), 0.22 ± 0.049 µM in series [4] (setting [10]), 12 ± 3.2 µM against UGT1A9 [5] (setting [7]) and 0.64 ± 0.16 µM at UGT1A9 [5] (setting [8]). The “inhibition in screening (in words)” value against UGT2B15 is recorded as “no significant inhibition”.
As to `CCCCCc1cc(O)c2c(c1)OC(C)(C)c1ccc(C)cc1-2` [CBN, cannabinol], the “inhibition vs control without cannabinoid” value at UGT1A6 (100 µM, screening in duplicate) is 43%. In addition, the “inhibition in screening (in words)” value at UGT1A9 [1] (10 or 100 µM) is reported as “significant inhibition”; against UGT2B7 (10 or 100 µM), “significant inhibition”; against UGT2B15 it was “no significant inhibition”. The concentration for half-maximal inhibition (IC50) amounted to 6 ± 0.75 µM against UGT1A9 [1] (IC50, probe substrate propofol); 0.51 ± 0.063 µM at UGT1A9 [1] (setting [6]); 21 ± 3.4 µM in series [2] (setting [7]); 2.6 ± 0.41 µM in series [2] (setting [8]); 6.9 ± 0.54 µM against UGT1A9 [3]; 15 ± 0.77 µM in series [4] (setting [9]). Moreover, the figures for the IC50 (in series [4] (setting [10]); against UGT1A9 [5] (setting [7]); at UGT1A9 [5] (setting [8])) were 1.9 ± 0.092 µM, 34 ± 6.3 µM and 3.1 ± 0.58 µM, respectively.

Broadly, the IC50 is the concentration needed to halve the response being measured.
